One data set has as its system SU-DHL-4 cells. Nature of the data set: Inhibition of cell proliferation, SU-DHL-4 cells (Cell Viability Assay, 72 h). In kind it is cell-based, human. Conditions: Homo sapiens. How it is done:
(§1) SU-DHL-4, Mino, and SU-DHL-6 cells, in the culture medium of RPMI1640+10% FBS, were cultured in an incubator at 37° C. under 5% CO2. Cells were plated in a 96-well plate. Specifically, SU-DHL-4 cells were at 20000/well, Mino and SU-DHL-6 cells were at 5000/well, with 90 μL/well. 10 μL of the compounds at different concentrations were added to each well. There were 3 replicate wells for each concentration, and the last column, added with DMSO, was used as a vehicle control group. The cultures were continued for 72 hours at 37° C. under 5% CO2. After 72 hours, 100 μL of detection reagent (Cell Viability Assay, Promega, G7573) was added to each well, and the cultures were uniformly mixed for 2 minutes, and incubated at room temperature for 10 minutes. The fluorescence signal value was measured with a microplate reader (PHERAstar FSX). The IC50 value of the compound on cell proliferation inhibition was calculated using Origin 9.2 software, and the inhibition rate at the highest concentration of the compound (Max inhi. %) was calculated according to formula (1). Max inhi. %=(1-T72 administration/T72 vehicle)×100 Formula (1).

The next data set has as its system SU-DHL-6 cells. The data set is described as follows: Inhibition of cell proliferation, SU-DHL-6 cells (Cell Viability Assay, 72 h). In kind it is cell-based. Conditions: Homo sapiens. How it is done:
as §1

The nature of data set [1]: Pharmacokinetic experiment in rats (i.g. vehicle 0.5% MC). In kind it is in vivo. Conditions: Sprague-Dawley (SD), rat, po; male SD rats, plasma, i.g. 20 mg/kg, vehicle 0.5% MC; read-out: AUC0-t. How it is done:
(§2) Objective: In this experiment, a single dose of each test compound was administered to SD rats intravenously and intragastrically, the concentrations of the test compound in plasma of rats were measured, and the pharmacokinetic characteristics and bioavailability of the test compound in rats were evaluated.
Experimental animals: Male SD rats, 200-250 g, 6-8 weeks old, 6 rats/test compound. The experimental animals were purchased from CHENGDU DOSSY EXPERIMENTAL ANIMALS CO., LTD.
(§3) Experimental method: On the day of the experiment, 6 SD rats were randomly grouped according to their body weight. The animals were fasted with water available for 12 to 14 hours one day before the administration of a test compound, and were fed 4 hours after the administration.
Sampling: Before and after the administration, 0.1 ml of blood was taken from the orbit of the rats under isoflurane anesthesia, and placed in an EDTAK2 centrifuge tube. Centrifugation was carried out at 5000 rpm at 4° C. for 10 min and the plasma was collected.
Time points for plasma collection in G1 group: 0, 5 m, 15 m, 30 m, 1 h, 2 h, 4 h, 6 h, 8 h, and 24 h.
Time points for plasma collection in G2 group: 0, 15 m, 30 m, 1 h, 2 h, 4 h, 6 h, 8 h, and 24 h.
(§4) Before analysis and detection, all samples were stored at −80° C. The samples were analyzed quantitatively by LC-MS/MS.

The subject of another data set is Mino cells. Nature of the data set: Inhibition of cell proliferation, Mino cells (Cell Viability Assay, 72 h). In kind it is cell-based, human. Conditions: Homo sapiens. Put shortly:
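RPMI1640 + 10% FBS cultures seeded at 20000/well (SU-DHL-4) or 5000/well (Mino, SU-DHL-6), exposed to compound dilutions in triplicate for 72 h at 37 °C, 5% CO2, DMSO vehicle control. Viability read by luminescent reagent; IC50 from dose-response and Max inhi. % = (1 − T72 treated/T72 vehicle)×100 at top concentration.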

Data set [2] is described as follows: Pharmacokinetic experiment in rats (i.g. vehicle DMSO/Solutol/PEG-400/SBE-β-CD). The format is in vivo. Particulars: Sprague-Dawley (SD), rat, plasma, po, male SD rats; for bioavailability: i.g. 20 mg/kg (DMSO/Solutol/PEG-400/SBE-β-CD) vs i.v. 5 mg/kg; for AUC(0-t): i.g. 20 mg/kg, vehicle 5% DMSO + 5% Solutol + 30% PEG-400 + 60% (20%SBE-β-CD). The procedure: as §2
Experimental animals: Male SD rats, 200-250 g, 6-8 weeks old, 6 rats/compound. The experimental animals were purchased from CHENGDU DOSSY EXPERIMENTAL ANIMALS CO., LTD.
as §3
Sampling: Before and after the administration, 0.1 mL of blood was taken from the orbit of the rats under isoflurane anesthesia, and placed in an EDTAK2 centrifuge tube. Centrifugation was carried out at 5000 rpm at 4° C. for 10 min and the plasma was collected.
Time points for plasma collection in G1 group: 0, 5 min, 15 min, 30 min, 1 h, 2 h, 4 h, 6 h, 8 h, and 24 h.
Time points for plasma collection in G2 group: 0, 15 min, 30 min, 1 h, 2 h, 4 h, 6 h, 8 h, and 24 h.
as §4

The record followed here is patent US11542266B1, “Substituted piperidines as BTK inhibitors” (HAISCO PHARMACEUTICALS PTE. LTD., priority 2019, dated 2023).

The structures appear in SMILES notation.

`Nc1ncnc2c1c(-c1ccc(Oc3ccccc3)cc1)nn2C1CCN(C2CCN(C3CCN(c4ccc5c(c4)C(=O)N(C4CCC(=O)NC4=O)C5=O)CC3)CC2)CC1` (stereo not drawn) [Compound 2, 5-[4-[4-[4-[4-amino-3-(4-phenoxyphenyl)pyrazolo[3,4-d]pyrimidin-1-yl]-1-piperidyl]-1-piperidyl]-1-piperidyl]-2-(2,6-dioxo-3-piperidyl)isoindoline-1,3-dione]: the IC50 (commonly the concentration at which inhibition is half-maximal) was 41 nM with SU-DHL-4 cells, 26 nM in the data set with SU-DHL-6 cells and 633 nM in the data set on Mino cells. In data set [1], the AUC(0-t) is 18.6 ± 2.8 ng·h/mL.

For `Nc1ncnc2c1c(-c1ccc(Oc3ccccc3)cc1)nn2C1CCN(CC2CCN(C3CN(c4ccc5c(c4)C(=O)N(C4CCC(=O)NC4=O)C5=O)C3)CC2)CC1` (stereo not drawn) [Compound 6, 5-(3-(4-((4-(4-amino-3-(4-phenoxyphenyl)-1H-pyrazolo[3,4-d]pyrimidin-1-yl)piperidin-1-yl)methyl)piperidin-1-yl)azetidin-1-yl)-2-(2,6-dioxopiperidin-3-yl)isoindoline-1,3-dione tritrifluoroacetate], the IC50 in the data set on SU-DHL-6 cells is 166 nM; with Mino cells it was 421 nM. In addition, the AUC(0-t) in data set [1] amounted to 328 ± 41 ng·h/mL.

Regarding `Nc1ncnc2c1c(-c1ccc(Oc3ccccc3)cc1)nn2C1CCN(CC2CCN(C3CCN(c4ccc5c(c4)C(=O)N(C4CCC(=O)NC4=O)C5=O)CC3)CC2)CC1` (stereo not drawn) [Compound 9, 5-(4-((4-(4-amino-3-(4-phenoxyphenyl)-1H-pyrazolo[3,4-d]pyrimidin-1-yl)piperidin-1-yl)methyl)-[1,4′-bipiperidin]-1′-yl)-2-(2,6-dioxopiperidin-3-yl)isoindoline-1,3-dione tetratrifluoroacetate], the values for the IC50 with SU-DHL-4 cells, with SU-DHL-6 cells and in the data set on Mino cells were 295 nM, 155 nM and 367 nM, respectively. Besides, the AUC(0-t) in data set [1] is 8.93 ± 4.3 ng·h/mL.

As for `Nc1ncnc2c1c(-c1ccc(Oc3ccccc3)cc1)nn2C1CCN(C2CN(C3CCN(C4CCN(C5CCN(c6ccc7c(c6)C(=O)N(C6CCC(=O)NC6=O)C7=O)CC5)CC4)CC3)C2)CC1` (stereo not drawn) [Compound 11, 5-[4-[4-[4-[3-[4-[4-amino-3-(4-phenoxyphenyl)pyrazolo[3,4-d]pyrimidin-1-yl]-1-piperidyl]azetidin-1-yl]-1-piperidyl]-1-piperidyl]-1-piperidyl]-2-(2,6-dioxo-3-piperidyl)isoindoline-1,3-dione Hexatrifluoroacetate], the IC50 in the data set with SU-DHL-4 cells stood at 189 nM; with SU-DHL-6 cells, 109 nM; in the data set with Mino cells it was 114 nM.

Turning to `Nc1ncnc2c1c(-c1ccc(Oc3ccccc3)cc1)nn2C1CCN(C2CCN(C3CCN(C4CCN(c5ccc6c(c5)C(=O)N(C5CCC(=O)NC5=O)C6=O)CC4)CC3)CC2)CC1` (stereo not drawn) [Compound 12, 5-[4-[4-[4-[4-[4-amino-3-(4-phenoxyphenyl)pyrazolo[3,4-d]pyrimidin-1-yl]-1-piperidyl]-1-piperidyl]-1-piperidyl]-1-piperidyl]-2-(2,6-dioxo-3-piperidyl)isoindoline-1,3-dione pentatrifluoroacetate], the IC50 with SU-DHL-4 cells turned out to be 56 nM; in the data set with SU-DHL-6 cells, 106 nM; in the data set on Mino cells it was 183 nM.

For `Nc1ncnc2c1c(-c1ccc(Oc3ccccc3)cc1)nn2C1CCN(C2CCN(C3CN(c4cc5c(cc4F)C(=O)N(C4CCC(=O)NC4=O)C5=O)C3)CC2)CC1` (stereo not drawn) [Compound 32, 5-(3-(4-(4-amino-3-(4-phenoxyphenyl)-1H-pyrazolo[3,4-d]pyrimidin-1-yl)-[1,4′-bipiperidin]-1′-yl)azetidin-1-yl)-2-(2,6-dioxopiperidin-3-yl)-6-fluoroisoindoline-1,3-dione], the IC50 in the data set on SU-DHL-4 cells stood at 330 nM; in the data set with SU-DHL-6 cells, 393 nM; in the data set on Mino cells it was 188 nM. For the same compound, the AUC(0-t) in data set [1] is 322 ± 64 ng·h/mL.

Take `Nc1ncnc2c1c(-c1ccc(Oc3ccccc3)cc1)nn2[C@@H]1CCN(C2CN(C3CN(c4ccc5c(c4)C(=O)N(C4CCC(=O)NC4=O)C5=O)C3)C2)C[C@@H]1F` (stereo partly drawn) [Compound 38, 5-[3-[3-[(3S,4R)-4-[4-amino-3-(4-phenoxyphenyl)pyrazolo[3,4-d]pyrimidin-1-yl]-3-fluoro-1-piperidyl]azetidin-1-yl]azetidin-1-yl]-2-(2,6-dioxo-3-piperidyl)isoindoline-1,3-dione]: the IC50 in the data set with SU-DHL-4 cells turned out to be 469 nM; in the data set with SU-DHL-6 cells, 888 nM; in the data set on Mino cells, 81 nM. Besides, the bioavailability (as a rule, dose-corrected exposure relative to a reference, in per cent) in data set [2] came out at 13.3 ± 5.2%. For the same compound, in data set [2], the AUC(0-t) is 7260 ± 2860 ng·h/mL.

For the compound `Nc1ncnc2c1c(-c1ccc(Oc3ccccc3)cc1)nn2[C@@H]1CCN(C2CN(C3CN(c4ccc5c(c4)C(=O)N(C4CCC(=O)NC4=O)C5=O)C3)C2)C[C@H]1F` (stereo partly drawn) [Compound 39, 5-(3-((3R,4R)-4-(4-amino-3-(4-phenoxyphenyl)-1H-pyrazolo[3,4-d]pyrimidin-1-yl)-3-fluoropiperidin-1-yl)-[1,3′-biazetidin]-1′-yl)-2-(2,6-dioxopiperidin-3-yl)isoindoline-1,3-dione], it took 41 nM to reach half-maximal inhibition in the data set on Mino cells (IC50). For the same compound, in data set [2], the bioavailability was found to be 9.1 ± 1.5% and the AUC(0-t) worked out at 2830 ± 474 ng·h/mL.

With `Nc1ncnc2c1c(-c1ccc(Oc3ccccc3)cc1)nn2[C@H]1CCN(C2CN(C3CN(c4ccc5c(c4)C(=O)N(C4CCC(=O)NC4=O)C5=O)C3)C2)C[C@H]1F` (stereo partly drawn) [Compound 41, 5-(3-((3R,4S)-4-(4-amino-3-(4-phenoxyphenyl)-1H-pyrazolo[3,4-d]pyrimidin-1-yl)-3-fluoropiperidin-1-yl)-[1,3′-biazetidin]-1′-yl)-2-(2,6-dioxopiperidin-3-yl)isoindoline-1,3-dione], the IC50 is 329 nM with SU-DHL-4 cells, 670 nM in the data set with SU-DHL-6 cells and 10.3 nM in the data set on Mino cells. Moreover, in data set [2], the bioavailability came out at 10.8 ± 1.5%. For the same compound, the AUC(0-t) in data set [2] is 7910 ± 1100 ng·h/mL.

For `Nc1ncnc2c1c(-c1ccc(Oc3ccccc3)cc1)nn2[C@H]1CCN(C2CN(C3CN(c4ccc5c(c4)C(=O)N(C4CCC(=O)NC4=O)C5=O)C3)C2)C[C@@H]1F` (stereo partly drawn) [Compound 43, 5-[3-[3-[(3S,4S)-4-[4-amino-3-(4-phenoxyphenyl)pyrazolo[3,4-d]pyrimidin-1-yl]-3-fluoro-1-piperidyl]azetidin-1-yl]azetidin-1-yl]-2-(2,6-dioxo-3-piperidyl)isoindoline-1,3-dione], the IC50 in the data set on SU-DHL-4 cells amounted to 330 nM; in the data set with SU-DHL-6 cells it was 407 nM; in the data set with Mino cells, 10 nM. The compound further gave a bioavailability in data set [2] of 11 ± 2.2%. Further, the AUC(0-t) in data set [2] turned out to be 4500 ± 886 ng·h/mL.

`Nc1ncnc2c1c(-c1ccc(Oc3ccccc3)cc1)nn2[C@H]1CCN(C2CCN(C3CN(c4ccc5c(c4)C(=O)N(C4CCC(=O)NC4=O)C5=O)C3)CC2)C[C@@H]1F` (stereo partly drawn) [Compound 44, 5-(3-((3S,4S)-4-(4-amino-3-(4-phenoxyphenyl)-1H-pyrazolo[3,4-d]pyrimidin-1-yl)-3-fluoro-[1,4′-bipiperidin]-1′-yl)azetidin-1-yl)-2-(2,6-dioxopiperidin-3-yl)isoindoline-1,3-dione] gave an IC50 in the data set with Mino cells of 15 nM. In data set [2], the bioavailability amounted to 5.73 ± 0.64% and the AUC(0-t) was found to be 877 ± 98 ng·h/mL.
